Read-outs that look alike come from different tables or passages of the source.
Columns and labels:
[1] = tested on: human non-small cell lung cancer (NSCLC) tumor cell lines; test: Proliferation with simultaneous 2-DG and Taxol treatment; format: cell-based; settings: 1 mM 2-DG by itself
[2] = tested on: MV522 xenograft; test: 2-DG/Paclitaxel dosing study in mouse MV522 xenograft model; format: in vivo; settings: 2-DG alone, oral; 10 days of dosing more effective than 5
Method: The mouse MV522 xenograft model substantially as described in Example 2 was used to compare the effects of dosing 2-DG orally (in water) either at a single dose of 4 g/kg or in multiple doses (twice a day at 2 g/kg) in various combinations with paclitaxel dosed i.p. as a single dose (30 mg/kg) or in multiple doses (once daily at 10 mg/kg).

[3] = for deaths: bid×5
Method: The maximum tolerated dose determination for this study was conducted using female nude mice (nu/nu) between 5 and 6 weeks of age weighing approximately 20 g (Harlan, Inc., Madison, Wis.). Dosing began on Day 1. […] A 20 mL/kg dose volume was used to achieve doses of 2000, 4000, 6000, 8000, and 9000 mg/kg/dose. Individual mouse weights in grams were recorded twice weekly throughout the study. The average weight per group was calculated, and weight gain or loss was determined by comparing the current Day's average to the Day 1 average for that same group. The study was terminated on Day 21.

[4] = rat, in vivo
[5] = tested on: HT-29 colon carcinoma; test: MTS growth inhibition assay, single agent studies; format: cell-based; settings: Homo sapiens, HT-29, 72 h; 3 days in culture; 11 mM glucose medium
Method: (§1) Human tumor cell lines MiaPaCa-2 pancreatic carcinoma (mutant ras, gemcitabine sensitive) and HT-29 colon carcinoma (polyposis type, mutant p53 and APC, chemosensitive) were purchased from the ATCC (Rockville, Md.). […] Cells grown to 70% confluency were trypsinized and resuspended into cell culture medium at a concentration of 10^5 cells/ml. On Day 0 of the experiment, a […] aliquot of tumor cells was plated into internal wells of a 96-well microtiter plate at an appropriate density (in the range of 2×10^3 to 10^4 cells/well). The cells were incubated for 24 hours to allow maximum adhesion prior to exposure with test agents. […] The starting concentration and the test range of 5-FU were determined empirically for each cell line. Treatment with 5-FU started on Day 1. There were 6 replicates for each dose determination. Both drugs were added once without the medium change. After 3 days in culture, the number of proliferating cells was measured by the MTS assay described below. The test was repeated twice to quantify growth inhibitory activity. […] IC50 values were generated from two separate experiments. […] The MTS reagent is a tetrazolium compound and an electron coupling reagent. The MTS tetrazolium compound is bioreduced by cells into a colored formazan product soluble in cell culture medium. The conversion is catalyzed by NADPH or NADH produced by dehydrogenase enzymes in metabolically active cells. The MTS assay is a colorimetic assay based upon the ability of viable cells to convert […] to formazan; the quantity of formazan product, as measured by the 490 nm absorbance, is directly proportional to the number of viable cells in culture. An automated procedure determines the IC50 value. Exponentially growing cells in […] of cell culture medium are plated on Day 0 in 96-well microtiter plates at a concentration of 10^4 cells/well. […] At the end of the designated time period, 100 microL of growth medium is removed. […] Absorbance is documented on a Dynex HD microplate reader at a wavelength of 490 nm. The data was calculated as percent growth inhibition, wherein 0% represents the mean value in wells to which only vehicle (cell culture medium) was added. The % Growth Inhibition was calculated as follows: % Growth Inhibition=(1−(ODtest/ODvehicle)×100, where ODtest is the optical density of the tested sample, and ODvehicle is the optical density of the vehicle in which each respective drug is dissolved. […] To determine the interaction, there must be a significant difference that exists between the combination absorbance values and both endpoint values. For example, if the values are statistically (p<0.05) above or below the absorbance values of either agent tested alone, then antagonism or synergy is described. […]

[6] = tested on: MiaPaCa-2 pancreatic carcinoma; test: MTS growth inhibition assay, single agent studies; format: cell-based; settings: Homo sapiens, MIA PaCa-2, 72 h; 3 days in culture; 11 mM glucose medium
Method: as §1

[7] = tested on: MV522 human tumor carcinomas; test: Tumor growth delay study in mouse MV522 xenograft model (TH-PT-001)
Method: Female nude mice (nu/nu) between 5 and 6 weeks of age and weighing approximately 20 g were obtained from Harlan, Inc. (Madison, Wis.). Animals were implanted subcutaneously by trocar with fragments of Mv522 human tumor carcinomas harvested from subcutaneously growing tumors in nude mice hosts. When the tumors were approximately 71 mg in size (11 days following inoculation), the animals were pair-matched into treatment and control groups. Each group contained 10 tumored mice. Each mouse was ear-tagged and followed individually throughout the experiment. Initial doses were given on Day 1 following pair-matching. […] Sterile water was administered orally bid×5 to end to serve as the negative control. Mice were weighed twice weekly, and tumor measurements were obtained using calipers twice weekly, starting on Day 1. These tumor measurements were converted to mg tumor weight by the standard formula (W^2×L)/2. Each mouse was sacrificed when its tumor weight reached 1000 mg. In this test, the average day of sacrifice was determined for all groups and the tumor growth delay (TGD) for each treatment group, compared to the control group, was calculated.
All of these studies are outlined in the following table.

[8] = dog, in vivo

O=CC[C@@H](O)[C@H](O)[C@H](O)CO [2-DG, 2-deoxy-D-glucose]
effect on proliferation [1]: no effect on proliferation by itself | tumor growth [2]: small delay in tumor growth | deaths ([3]; 6000 mg/kg/dose group): One mouse died | deaths ([3]; 8000 and 9000 mg/kg/dose groups): All 5 mice died | maximum tolerated dose (MTD) ([3]; mouse, in vivo): 4000 mg/kg/dose | visible signs of toxicity, multiple dose (5-day) [4]: no visible signs of toxicity | toxicity, single oral dose ([4]; po): non-toxic | IC50 [5]: 9.83 mM | IC50 [6]: 2.62 mM | tumor growth rate ([7]; 2-DG single agent 0–2000 mg/kg/dose, twice a day): did not slow the tumor growth rate | mean day of sacrifice ([7]; 2-DG single agent 750 mg/kg p.o. bid×5 to end): 28.9+/−3.7 | mean day of sacrifice ([7]; 2-DG single agent 1000 mg/kg p.o. (Days 1–14 dose 50 mg/kg) bid×5 to end): 27.2+/−2.7 | mean day of sacrifice ([7]; 2-DG single agent 1500 mg/kg p.o. (Days 1–14 dose 150 mg/kg) bid×5 to end): 28.2+/−4.6 | mean day of sacrifice ([7]; 2-DG single agent 2000 mg/kg p.o. (Days 1–14 dose 400 mg/kg) bid×5 to end): 29.4+/−3.1 | toxic deaths ([7]; 2-DG single agent groups): no toxic deaths | weight loss ([7]; mouse, in vivo): little weight loss | visible signs of toxicity, multiple dose (5-day) [8]: no visible signs of toxicity | tolerability, single oral doses ([8]; po): well tolerated | toxicity, single oral dose ([8]; po, 1 h): emesis at 1 hour but no other visible toxicity

From patent US6979675B2, “Treatment of cancer with 2-deoxyglucose” (Threshold Pharmaceuticals, Inc., priority 2003, dated 2005)
